These results are taken from patent US9796674B2, “Benzyl urea derivatives for activating TGF-beta signaling” (THE BOARD OF TRUSTEES OF THE LELAND STANFORD JUNIOR …, priority 2013, dated 2017).

Assay [1] concerns B103 neuroblastoma cells. The assay is described as follows: B103 live/dead cell assay with Aβ. It is filed as cell-based, rat. The following applies: Aβ 24 h; added 2 h before Aβ. On the procedure:
SRI-11381 is neuroprotective in vitro: To determine if the TGF-β-inducing capacity of SRI-011381 would translate into biologically beneficial effects, its neuroprotective potential was tested in B103 rat neuroblastoma cells and primary mouse neurons derived from E16 forebrains. B103 neuroblastoma cells were cultured in 24-well plates and exposed to an oligomeric preparation of Aβ together with compounds or recombinant TGF-β.
FIGS. 3A-3H illustrate that SRI-011381 protects cultured neurons from Aβ toxicity. B103 neuroblastoma cells were incubated with Aβ for 24 h. The compounds and TGF-β were added 2 h before Aβ. Following incubations live and dead cells were assessed with calcein-acetoxymethylester (CAM) and SYTOX Orange (Invitrogen), respectively.
B103 neuroblastoma cells: B103 neuroblastoma cells were cultured in Dulbecco's modified Eagle's medium containing 10% fetal calf serum and 1% v/v penicillin/streptomycin (Invitrogen) in a 5% CO2: 95% air atmosphere. 10^4 cells/well were seeded onto 24 well plates and cultured for 24 h before Aβ was added. The compounds and TGF-β were added 2 h before Aβ. Following a 24 h incubation with Aβ, live and dead cells were assessed using calcein-acetoxymethylester (CAM) and SYTOX Orange (Invitrogen), respectively. AM is a membrane-permeable, fluorogenic esterase substrate that is hydrolyzed intracellularly to a green fluorescent product (calcein) in live cells. SYTOX Orange is a high-affinity nucleic acid stain that easily penetrates cells with compromised plasma membranes and yet will not cross the membranes of live cells. After incubation with SYTOX Orange, the nucleic acids of dead cells fluoresce bright orange. […] Five fields were randomly selected from each well and the cell numbers were analyzed by ImageJ (NIH) in a blinded fashion.

The test system of assay [2] is hippocampal neurons. The assay is described as follows: Aβ-induced neuritic dystrophy in primary hippocampal neurons. The following applies: for average numbers of dystrophic neurites per neuron: 21-22 DIV, 5 μM Aβ, 48 h. It is filed as cell-based, mouse. On the procedure:
Primary hippocampal neurons isolated from E16 CF1 embryos were aged for 6-7 days or 21-22 days, then challenged with 5 μM oligomeric Aβ in the presence or absence of compounds, and assayed for neurotoxicity (cell survival as above) or neuritic dystrophy, respectively. For quantification of neuritic dystrophy, fixed cells were immune-stained with a MAP-2 monoclonal antibody to label dendrites.
Primary hippocampal neurons were isolated from E16 CF1 embryos. Twenty-four-well culture plates were coated with 10 μg/ml poly-L-lysine. Cells were seeded overnight at a density of 30,000 cells/well in DMEM/F-12 medium supplemented with 10% FBS and penicillin/streptomycin, and subsequently maintained in Neurobasal medium containing 2% B27 supplement. Cells were aged for 6-7 days or 21-22 days, then challenged with 5 μM Aβ in the presence or absence of compounds, and assayed for neurotoxicity or neuritic dystrophy, respectively. Cells were treated for 72 h for neurotoxicity assay and 48 h for neuritic dystrophy assay. At the end of treatment, an equal volume of 4% PFA was added, plates incubated at room temperature for 15 min and then washed three times with DPBS. Cells were kept in the last wash of DPBS at 4° C. until being counted or stained.
For quantification of neuritic dystrophy, fixed cells were immunostained with a MAP-2 monoclonal antibody (Sigma-Aldrich). […] MAP2 positive dendrites were observed under an inverted fluorescence microscope (Olympus). […] To quantify neurite curvature, an established method was modified for assessment of neurite curvature. Neurite tracks were digitized and approximated by a series of connected line segments using ImageJ (NIH). The angle of each segment was determined using a Sigmaplot macro, and the results were averaged to give the ‘mean differential curvature’. This parameter reflects the degree of neurite curvature with an increasing value indicating increased curvature. Neurite counting and quantification were performed in randomly selected fields (5 fields/well). All quantitative assessments were done by investigators blinded with respect to treatment conditions.

The test system of assay [3] is TGF-β signaling. The assay is described as follows: Bioluminescence in SBE-luc reporter mice. The following applies: brain/CNS bioluminescence. It is filed as in vivo, mouse. On the procedure: The most promising compounds out of these screens were tested for their neuroprotective potential in B103 rat neuroblastoma cells and primary mouse neurons derived from E16 forebrains. Compounds were also tested for their capacity to reduce varicosities and tortuosity in primary mouse neurons. Accordingly, novel neuroprotectant small molecules have been identified that are as potent or better than TGF-β. Importantly, they fulfilled the critical neuroprotective properties in neuronal cell lines and primary hippocampal mouse neurons. • Compounds based on the 11H core: The present compositions and methods include salts of the active compounds and formulations, in particular pharmaceutically acceptable compositions for administration to an animal or human subject and containing active compounds. 129 analogs or derivatives of 11H were screened by a cell-based assay for their ability to increase TGF-β activity, i.e. to act as a TGF agonist. In particular, one compound (a) designated as SRI-011381 (381) was identified as especially advantageous, although active derivatives thereof are contemplated and have been identified. • Effects of TGF-β analogs in vitro: Some of the small-molecule TGF-β agonist compounds were tested for neuroprotection activity and toxicity in vitro (cell culture). In addition, the mechanism of action of the agonists was explored using cells with different genetic backgrounds with respect to protein of the […] signaling pathway. • Animal studies: Transgenic mice harboring the SBE-luc reporter gene were generated and used to test the derivatives of compound 11H in vivo. These “reporter mice” mice express SBE-luc (i.e., “the transgene”) in all cells of the body. Intraperitoneal injection of luciferin into SBE-luc-expressing mice produces bioluminescence generated by luciferase and photons penetrating the skull can be imaged using sensitive camera systems.
SBE-luciferase transgenic mice: Two-month old SBE-luciferase transgenic mice receive different concentrations of a test compound either s.q., ip., or orally by gavage. […] Following administration of the test or control compounds, mice are injected with luciferin ip. At, for example, 2, 8, and 16 hours following injection of luciferin, the mice are imaged to detect bioluminescence as described above. Brains may be harvested 16 hours following test compound injection, and may be divided sagittally. For example, one hemi-brain can be homogenized in luciferase assay buffer for measurement of reporter gene activation, while the other hemi-brain can be frozen at −70° C. for future study, including sectioning into individual brain regions

For the molecule “TGF-β1: Transforming Growth Factor-β, recombinant cytokine used as comparator”, in assay [1], the Aβ-induced cell death entry is “inhibit Aβ-induced cell death”. Moreover, in assay [2], the “Aβ-induced increase in neurite curvature (mean differential curvature)” value is “prevented” and the “average numbers of dystrophic neurites per neuron” value is listed as “markedly reduced”.

For `C/C(=C\c1ccccc1)CN(CC1CCNCC1)C(=O)NC1=CCC=CC1` [Compound 11H, reference compound], the “activation of TGF-β signaling in SBE-luc reporter mice” value in assay [3] was “penetrate into the CNS and activate TGF-β signaling”. Moreover, in assay [2], the “average numbers of dystrophic neurites per neuron” value was “markedly reduced”.
